The source of these data is patent publication US12134721B2, “Complexes and ligands” (The General Hospital Corporation, priority 2018, dated 2024).

Type in all cases: physicochemical
The nature of data set [1]: Fluorescence lifetimes of selected lanthanide (Tb, Eu, Dy, Sm) complexes. The settings on record: Table 1. On the procedure:
(§1) Photophysical measurements: UV/visible and emission spectra were recorded on a Horiba Scientific Dual FL spectrophotometer. Ligands loaded with terbium were diluted into 1×PBS (pH 7.4) to a concentration of 20 uM (for absorbance) or 4 uM (for emission). For emission spectra, the data were normalized to the highest fluorescence signal. The fluorescence lifetime was determined by plotting the ln of the signal decay over time then solving for r in Equation 1:
(§2) [formula] where It is the intensity at time t, α is a normalization term (the preexponential factor) and τ is the lifetime.

Data set [2] in a line: Photophysical measurements of terbium complexes in 1x PBS pH 7.4. The settings on record: for τPBS (fluorescence lifetime): 1x PBS pH 7.4; for Emission λmax: 1x PBS pH 7.4, 4 uM; for εmax / λmax, Abs: 1x PBS pH 7.4, 20 uM. On the procedure: as §1, §2
Data set [3] is described as follows: Stability of Tb complexes (10 nM) in various buffers over 7 days. The settings on record: buffers with 0.05% TWEEN-20. On the procedure:
The stability of NCP190-Tb (10 nM) was measured over the course of 7 days in various different buffers. All buffers contained 0.05% TWEEN-20 detergent.
The stability of NCP134-Tb (10 nM) was measured over the course of 7 days in various different buffers. All buffers contained 0.05% TWEEN-20 detergent.

A short description of data set [4]: Fluorescence lifetimes of selected lanthanide (Tb, Eu, Dy, Sm) complexes.
Where [5] appears, read: Dy and Sm complexes of NCP189, Table 3.

For the compound `O=C1NCCN2CCNC(=O)c3cccc(c3O)C(=O)NCCN(CCNC(=O)c3cccc1c3O)CCN1CCNC(=O)c3cccc(c3O)C(=O)NCCN(CCNC(=O)c3cccc(c3O)C(=O)NCC1)CC2` [NCP 134-Tb], the “Life Time” value in data set [1] is listed as 2.56 ms. Also, in data set [2], the “τPBS (fluorescence lifetime)” value stood at 2.10 ms; the “Emission λmax” value was 545 nm; the εmax was 11,600 M^−1cm^−1; the “λmax, Abs” value turned out to be 340 nm. For the same compound, in data set [3], the “Stability in various buffers” value was “only significantly destabilized by EDTA, however to a greater extent relative to NCP190-Tb”.

As to `O=C(O)CN1CCN2CCNC(=O)c3cccc(c3O)C(=O)NCCN(CCNC(=O)c3cccc(c3O)C1=O)CCN1CCNC(=O)c3cccc(c3O)C(=O)NCCN(CCNC(=O)c3cccc(c3O)C(=O)NCC1)CC2` [NCP 144-Tb], in data set [1], the “Life Time” value is recorded as 2.06 ms. Also, in data set [2], the “τPBS (fluorescence lifetime)” value is given as 2.06 ms; the “Emission λmax” value is 545 nm; the εmax is recorded as 19,230 M^−1cm^−1; the “λmax, Abs” value is listed as 340 nm.

Regarding `O=C1NCCN2CCNC(=O)c3cc(Br)cc(c3O)C(=O)NCCN(CCNC(=O)c3cc(Br)cc1c3O)CCN1CCNC(=O)c3cc(Br)cc(c3O)C(=O)NCCN(CCNC(=O)c3cc(Br)cc(c3O)C(=O)NCC1)CC2` [NCP 158-Tb], the “Life Time” value in data set [1] was determined as 0.97 ms. In data set [2], the “τPBS (fluorescence lifetime)” value came to 0.97 ms; the “Emission λmax” value was 545 nm; the εmax is listed as 13,750 M^−1cm^−1; the “λmax, Abs” value is recorded as 355 nm.

Consider `O=C(CN1CCN2CCNC(=O)c3cccc(c3O)C(=O)NCCN(CCNC(=O)c3cccc(c3O)C1=O)CCN1CCNC(=O)c3cccc(c3O)C(=O)NCCN(CCNC(=O)c3cccc(c3O)C(=O)NCC1)CC2)NCCOCCOCCCCCCCl` [NCP 166-Tb], for which, in data set [1], the “Life Time” value is 2.23 ms. The same measure, in the same setting: as for `Nc1nc(CCc2ccc(CNC(=O)CN3CCN4CCNC(=O)c5cccc(c5O)C(=O)NCCN(CCNC(=O)c5cccc(c5O)C3=O)CCN3CCNC(=O)c5cccc(c5O)C(=O)NCCN(CCNC(=O)c5cccc(c5O)C(=O)NCC3)CC4)cc2)c2[nH]cnc2n1` [NCP 169-Tb], the figure is 1.99 ms. On to `O=C(O)CCCCCN1CCN2CCNC(=O)c3cccc(c3O)C(=O)NCCN(CCNC(=O)c3cccc(c3O)C1=O)CCN1CCNC(=O)c3cccc(c3O)C(=O)NCCN(CCNC(=O)c3cccc(c3O)C(=O)NCC1)CC2` [NCP 189-Dy], for which the “Life Time” value in data set [4] (setting [5]) was determined as 22.7 ms. `O=C(O)CCCCCN1CCN2CCNC(=O)c3cccc(c3O)C(=O)NCCN(CCNC(=O)c3cccc(c3O)C1=O)CCN1CCNC(=O)c3cccc(c3O)C(=O)NCCN(CCNC(=O)c3cccc(c3O)C(=O)NCC1)CC2` [NCP 189-Eu] displayed a Life Time in data set [4] (Eu complexes, Table 2) of 598 µs. As to `O=C(O)CCCCCN1CCN2CCNC(=O)c3cccc(c3O)C(=O)NCCN(CCNC(=O)c3cccc(c3O)C1=O)CCN1CCNC(=O)c3cccc(c3O)C(=O)NCCN(CCNC(=O)c3cccc(c3O)C(=O)NCC1)CC2` [NCP 189-Sm], the “Life Time” value in data set [4] (setting [5]) turned out to be 28.1 ms. For `O=C(O)CCCCCN1CCN2CCNC(=O)c3cccc(c3O)C(=O)NCCN(CCNC(=O)c3cccc(c3O)C1=O)CCN1CCNC(=O)c3cccc(c3O)C(=O)NCCN(CCNC(=O)c3cccc(c3O)C(=O)NCC1)CC2` [NCP 189-Tb], the “Life Time” value in data set [1] worked out at 1.79 ms.

Take `O=C(CCCCCN1CCN2CCNC(=O)c3cccc(c3O)C(=O)NCCN(CCNC(=O)c3cccc(c3O)C1=O)CCN1CCNC(=O)c3cccc(c3O)C(=O)NCCN(CCNC(=O)c3cccc(c3O)C(=O)NCC1)CC2)NCCOCCOCCCCCCCl` [NCP 190-Tb]: the “Life Time” value in data set [1] was determined as 2.46 ms. Further, the “Stability in various buffers” value in data set [3] was “only significantly destabilized by EDTA”. With `Nc1nc(CCc2ccc(CNC(=O)CCCCCN3CCN4CCNC(=O)c5cccc(c5O)C(=O)NCCN(CCNC(=O)c5cccc(c5O)C3=O)CCN3CCNC(=O)c5cccc(c5O)C(=O)NCCN(CCNC(=O)c5cccc(c5O)C(=O)NCC3)CC4)cc2)c2nc[nH]c2n1` [NCP 191-Tb], in data set [1], the “Life Time” value is recorded as 2.11 ms. `O=C(O)CCCCCN1CCN2CCNC(=O)c3cccc(c3O)C(=O)NCCN(CCNC(=O)c3cccc(n3)C1=O)CCN1CCNC(=O)c3cccc(c3O)C(=O)NCCN(CCNC(=O)c3cccc(c3O)C(=O)NCC1)CC2` [NCP 227-Eu] yielded a Life Time in data set [4] (Eu complexes, Table 2) of 651 µs. As to `O=C(O)CCCCCN1CCN2CCNC(=O)c3cccc(c3O)C(=O)NCCN(CCNC(=O)c3cccc(n3)C1=O)CCN1CCNC(=O)c3cccc(c3O)C(=O)NCCN(CCNC(=O)c3cccc(c3O)C(=O)NCC1)CC2` [NCP 227-Tb], in data set [1], the “Life Time” value is listed as 1.20 ms.

With `O=C(O)CCCCCN1CCN2CCNC(=O)c3cccc(c3O)C(=O)NCCN(CCNC(=O)c3cccc(c3)C1=O)CCN1CCNC(=O)c3cccc(c3O)C(=O)NCCN(CCNC(=O)c3cccc(c3O)C(=O)NCC1)CC2` [NCP 259-Eu], in data set [4] (Eu complexes, Table 2), the Life Time was determined as 657 µs. Consider `O=C(O)CCCCCN1CCN2CCNC(=O)c3cccc(c3O)C(=O)NCCN(CCNC(=O)c3cccc(c3)C1=O)CCN1CCNC(=O)c3cccc(c3O)C(=O)NCCN(CCNC(=O)c3cccc(c3O)C(=O)NCC1)CC2` [NCP 259-Tb], for which the “Life Time” value in data set [1] is recorded as 1.37 ms.

In the case of `O=C1NCCN2CCNC(=O)c3cccc(c3O)C(=O)NCCN(CCNC(=O)c3cccc1c3O)CC(=O)N1CCNC(=O)c3cccc(c3O)C(=O)NCCN(CCNC(=O)c3cccc(c3O)C(=O)NCC1)CC2` [NCP 272-Eu], the Life Time in data set [4] (Eu complexes, Table 2) is 609 µs. On to `O=C1NCCN2CCNC(=O)c3cccc(c3O)C(=O)NCCN(CCNC(=O)c3cccc1c3O)CC(=O)N1CCNC(=O)c3cccc(c3O)C(=O)NCCN(CCNC(=O)c3cccc(c3O)C(=O)NCC1)CC2` [NCP 272-Tb], for which, in data set [1], the “Life Time” value stood at 1.53 ms. `O=C1NCCN2CCNC(=O)c3cccc(c3O)C(=O)NCCN(CCNC(=O)c3cccc1c3O)C(=O)N1CCNC(=O)c3cccc(c3O)C(=O)NCCN(CCNC(=O)c3cccc(c3O)C(=O)NCC1)CC2` [NCP 275-Eu]: the “Life Time” value in data set [4] (Eu complexes, Table 2) is 505 ms. Consider `O=C1NCCN2CCNC(=O)c3cccc(c3O)C(=O)NCCN(CCNC(=O)c3cccc1c3O)C(=O)N1CCNC(=O)c3cccc(c3O)C(=O)NCCN(CCNC(=O)c3cccc(c3O)C(=O)NCC1)CC2` [NCP 275-Tb], for which the “Life Time” value in data set [1] is recorded as 1.39 ms. Consider “BH(2,2)IAM-N-carboxymethyl-Halotag [NCP166]”, for which, in data set [2], the “τPBS (fluorescence lifetime)” value is recorded as 2.23 ms; the “Emission λmax” value stood at 545 nm; the εmax is reported as 10,800 M^−1cm^−1; the “λmax, Abs” value is 340 nm.
